The record followed here is article PMC8022858, “Discovery of bone morphogenetic protein 7-derived peptide sequences that attenuate the human osteoarthritic chondrocyte phenotype” (Molecular Therapy. Methods & Clinical Development, 2021).

In this experiment the test system is primary human OA articular chondrocytes (OA-HACs). Nature of the experiment: BMP7 peptide library screening, quantitative real-time PCR of OA chondrocyte phenotype genes. Format: cell-based. The following applies: for expression of SOX9, COL2A1, and NKX3-2 mRNA / expression of RUNX2, COL10A1, ALPL, MMP13, ADAMTS5, COX-2, and IL6 mRNA: 24 h, 1, 10, 100 or 1,000 nM peptide, normalized to 28S rRNA; for expression of SOX9, COL2A1, and NKX3-2 mRNA: relative to control (Figure 2A); for expression of RUNX2, COL10A1, ALPL, MMP13, ADAMTS5, COX-2, and IL6 mRNA: relative to control (Figures 2B, 2C); for concentration range of bioactivity / COL10A1 mRNA expression: 24 h; for concentration range of bioactivity: concentration series 1-1,000 nM; for COL10A1 mRNA expression: pool of 18 OA-HACs, 100 nM peptide, versus control (Figure 1B). The source says:
To investigate whether BMP7 harbors potential peptide sequences that improve the OA chondrocyte phenotype, a peptide library was designed from the mature 139 amino acid-long human BMP7 sequence (Table S2). The peptide library was designed as 20-mer peptides with 2 amino acid intervals (18 amino acid overlap) between individual peptides and with all cysteine residues substituted by serine residues to avoid uncontrolled oxidation of cysteine groups. This yielded 61 individual peptides covering the complete mature human BMP7 sequence (Figure 1A). The peptide library was screened using a pool of primary human OA articular chondrocytes (OA-HACs) from 18 individual donors. Prior to pooling, individual OA-HAC isolates were tested for their responsiveness to BMP7 (Figure S1). The screening was conducted by exposing the OA-HAC pool for 24 h to a concentration series (1, 10, 100, or 1,000 nM) of each peptide from the library. […] This is defined as reduced expression of collagen type X alpha 1 chain (COL10A1), alkaline phosphatase (ALPL), Runt-related transcription factor 2 (RUNX2), ADAMTS5, MMP13, prostaglandin-endoperoxide synthase 2 or cyclooxygenase-2 (COX-2), and interleukin 6 (IL6) and increased expression of SRY-box transcription factor 9 (SOX9), COL2A1, and NKX3-2. […] Representative peptides inducing the above gene expression characteristics in OA-HACs were selected from both regions for further investigation. These were peptide p[63−82] and p[113−132] from the library, covering amino acids 63−82 and 113−132 of the mature BMP7 amino acid sequence. The complete quantitative real-time PCR data for peptides p[63−82] and p[113−132] […] For the two candidate peptides, we validated data using an independent cohort of three OA-HACs exposed to 100 nM of p[63−82] or p[113−132] or a combination of both peptides. […] Taken together, two regions in BMP7 were identified delivering peptide sequences that are able to improve the OA chondrocyte phenotype.
Figure 1 BMP7 peptide library screening on primary human OA articular chondrocytes (OA-HACs) (A) Schematic representation of the design of the human BMP7 peptide library. (B) COL10A1 mRNA expression in samples from the library screening on a pool of 18 OA-HACs individually exposed for 24 h to the peptides (100 nM) in the library. Data are shown as compared to the control condition (white bar) and full-length BMP7 (1 nM; gray bar). The two blue bars represent candidate peptides p[63−82] and p[113−132]. […] Error bars represent mean ± SEM, and statistical significance for peptide condition or BMP7 versus control condition as determined by unpaired two-tailed Student’s t test is represented as ∗p < 0.05, ∗∗p < 0.01, and ∗∗∗p < 0.001; NS, not significant.
Figure 2 Bioactivity of BMP7-derived peptides p[63−82] and p[113−132] on OA-HACs Complete peptide library screening quantitative real-time PCR dataset for peptides p[63−82] and p[113−132] is presented. (A) SOX9, COL2A1, and NKX3-2 mRNA expression in the 18 OA-HAC pool exposed to 1,000, 100, 10, or 1 nM of peptide p[63−82] and p[113−132] is shown and presented relative to control (black bars) and alongside full-length BMP7 (white bars). (B) Similar to (A) but for chondrocyte hypertrophy-associated genes RUNX2, COL10A1, and ALPL. (C) Similar to (A) but for cartilage extracellular matrix remodeling-associated genes MMP13 and ADAMTS5 and inflammation-related genes COX-2 and IL-6. (D) Glycosaminoglycan (GAG) content (normalized to total protein content) on an independent cohort of three individual OA-HAC donors treated with 100 nM peptides p[63−82] and p[113−132] for 24 h. (E) Alkaline phosphatase (ALP) activity (normalized to total protein content) in similar samples from (D). (F) Prostaglandin E2 (PGE2) levels in culture supernatant in similar samples from (D). […]

As for “BMP7: full-length recombinant bone morphogenetic protein 7 (R&D Systems), used at 1 nM”, where the note is “full-length BMP7 1 nM, OA-HACs”, the “chondrocyte COX-2, IL-6, and PGE2 levels” value was “attenuation”.
For the substance H-AAYYSEGESAFPLNSYMNAT-OH [p[63−82]], the “COL10A1 mRNA expression” value is “significantly downregulated”. In addition, under “pool of 18 OA-HAC donors”, the “expression of SOX9, COL2A1, and NKX3-2 mRNA” value was “induced”; the “expression of RUNX2, COL10A1, ALPL, MMP13, ADAMTS5, COX-2, and IL6 mRNA” value is “inhibited”; the “concentration range of bioactivity” value was “low nanomolar range”.
Turning to “H-SEASPAMYYLNATANFYESG-OH [scrambled p[63−82], scrambled version of peptide p[63−82], reference compound]”, the “sequence specificity: expression of COL2A1, RUNX2, COL10A1, and COX-2” value (pool of 18 OA-HAC donors, scrambled peptides 100 nM, 24 h (Figure 2G)) was “neither one of them was able to recapitulate the bioactivity”.
For the substance H-SVLYFDDSSNVILKKYRNMV-OH [p[113−132]], the “COL10A1 mRNA expression” value is recorded as “significantly downregulated”. Also, for the setting “pool of 18 OA-HAC donors”, the “expression of SOX9, COL2A1, and NKX3-2 mRNA” value is recorded as “induced”; the “expression of RUNX2, COL10A1, ALPL, MMP13, ADAMTS5, COX-2, and IL6 mRNA” value is “inhibited”; the “concentration range of bioactivity” value is on record as “low nanomolar range”.
